{"source": "patent US20170343557A1", "about": "“USE OF 5-METHOXYTRYPTOPHAN AS DIAGNOSTIC AGENT OF INFLAMMATORY DISEASES” (NATIONAL HEALTH RESEARCH INSTITUTES, priority 2014, published 2017)", "origin": "cited, not measured here", "key": {"[1]": {"system": "cancer cell migration and invasion"}, "[2]": {"system": "COX-2 expression in fibroblasts and cancer cells"}, "[3]": {"system": "cancer metastasis in a xenograft model"}}, "data": [{"smiles": "COc1ccc2[nH]cc(C[C@H](N)C(=O)O)c2c1", "note": "[5-MTP, 5-methoxytryptophan]", "values": [{"measurement": "Cancer cell migration and invasion", "setting": "[1]", "result": "reduces"}, {"measurement": "Proinflammatory mediator-induced COX-2 expression", "setting": "[2]", "result": "inhibits"}, {"measurement": "Cancer metastasis", "setting": "[3]", "result": "reduces"}]}]}
